Measured values as given in publication PMC6165478, “Wine and Olive Oil Phenolic Compounds Interaction in Humans” (Diseases, 2018).
Several values for one entry are separate records, joined by “and”; a condition that tells them apart may be missing. Equal values may be shown once. Marks after values point to notes of the source that are not given here.

Columns and labels:
[1] = Urinary recovery of HT, TYR and their metabolites (LC-MS/MS), crossover clinical trial; format: in vivo; conditions: urine 0-6 h, n = 12, mean ± SD
Experimental: (§1) Volunteers received each treatment in a randomized manner. […] The total duration of the study was nine days.
The quantification of urinary levels of HT and TYR free forms and their metabolites was performed using a solid-phase extraction and following the method previously described. The method was capable of detecting the free forms HT, TYR, and HVALc; the sulfate conjugates HT-sulfate, TYR-sulfate, and HT-acetate-sulfate; and the glucuronide conjugates HT-glucuronide, TYR-glucuronide, and HVALc-glucuronide. Shortly thereafter, aliquots of 0.5 mL of the samples were diluted with 0.5 mL of purified water and spiked with 10 µL of internal standard (containing 10 µg/mL of HT-D3, 3-(4-hydroxyphenyl)-1-propanol, 4-(3-hydroxypropylphenyl) glucuronide and HT-1-sulfate) and stabilized with 1 mL of phosphoric acid 4%. Thereafter, samples were submitted to a solid-phase extraction by means of Oasis HLB columns. Samples were loaded into the cartridges, and the cartridges were then washed with 2 mL of purified water. Finally, the compounds of interest were eluted by adding 2 mL of methanol to the cartridges. Subsequently, the methanol was evaporated until dry using nitrogen (29 °C, 10–15 psi). Finally, the dried extracts were reconstituted in 100 µL of a mixture of mobile phases (91% A/9% B v/v), transferred into HPLC vials, and analyzed by LC-MS/MS.
Identification and quantification of HT and TYR metabolites was performed using an Agilent 1200 series HPLC system (Agilent technologies, Santa Clara, California, CA, USA) coupled to a triple quadrupole (6410 Triple Quad LC/MS; Agilent) mass spectrometer with an electrospray interface. The chromatographic separation was carried out with an Acquity UPLC® BEH C18 column with a 1.7 μm particle size, 3 mm × 100 mm (Waters, Milford, MA, USA) maintained at 40 °C. The composition of mobile phase A was 0.01% of ammonium acetate (pH 5) in water; mobile phase B was pure methanol. The injection volume was 10 μL and the ion source operated in negative ionization mode.

[2] = Ethyl glucuronide quantification in urine (LC-MS/MS); format: in vivo, humans
Experimental: as §1
Ethyl glucuronide concentration in urine was used as a marker of alcohol abstinence and compliance with the dietary recommendations before each intervention. To determine urinary concentrations of ethyl glucuronide, aliquots of 30 μL were mixed with 10 μL of IS mix solution (containing 10 μg/mL ethyl-glucuronide-d5 and ethyl-sulfate-d5) and 110 μL of 0.1% formic acid solution in water. The identification and the quantification of ethyl glucuronide were carried out using an Agilent 1200 series HPLC system (Agilent technologies) (Santa Clara, California, CA, USA) coupled to a triple quadrupole (6410 Triple Quad LC/MS; Agilent) mass spectrometer with an electrospray interface. To perform the chromatographic separation, an Acquity UPLC® BEH C18 column with a 1.7 μm particle size, 3 mm × 100 mm (Waters, Milford, MA, USA) was used. The composition of mobile phase A was 0.1% (v/v) formic acid in water, and mobile phase B was 0.1% (v/v) formic acid in acetonitrile.

[3] = Urinary recovery of RESV, its isomers and dihydro-RESV (GC-MS after enzymatic hydrolysis), crossover clinical trial; conditions: for RESV urinary recovery from 0 to 6 h: urine 0-6 h, n = 12, mean ± SD
Experimental: The study consisted of a crossover randomized clinical trial with three different interventions. The interventions consisted of a single administration of 25 mL of EVOO, 150 mL of RW, or the combination of both 25 mL of EVOO and 150 mL of RW. Treatment quantities were equivalent to normal dietary doses of a typical MD. A total of twelve healthy subjects (50% women, 34.0 ± 10.5, BMI = 22.0 ± 3.3 kg/m^2) participated in the study. The study was explained to participants through verbal and written instructions, and written informed consent was obtained before participation. Volunteers received each treatment in a randomized manner. The study included three experimental sessions in which each intervention was administered under fasting conditions. Each experimental session was preceded by a two-day washout period. The total duration of the study was nine days.
On the day of the intervention, subjects consumed one of the three interventions within a period of 5–10 min. Urine was collected in separate fractions, at baseline (−2–0 h), to assess dietary compliance and during 6 h after each dietary intervention (0–6 h). The amount of urine in each fraction was measured, acidified with 6 M HCl, and stored at −20 °C until analysis. The study protocol was approved by the Ethics Committee of Parc de Salut Mar (CEIC-PSMAR) (Spain), and the clinical trial was registered at the International Standard Randomized Controlled Trial Number (NCT03614520).
Urine was subjected to a hydrolysis procedure previously described by our working group. Aliquots of 1 mL of diluted urine (1:10 in water) were spiked with 10 µL of IS (containing 10 µg/mL of diethylstilbestrol), 100 µL of sodium metabisulfite, 1 mL acetate buffer 0.1 M pH 5.2, and 25 µL of β-glucuronidase. The samples were incubated at 37 °C overnight. After incubation, 1 mL of NaOH was added to neutralize the hydrolysis process. For the extraction of the phenolic compounds, 0.5 mL of a saturated solution of NaCl and 4 mL of acetonitrile-ethyl acetate mixture (1:4 v/v) were added. Samples were mixed for 30 min, centrifuged for 5 min at 300 g, and the organic phase was extracted and evaporated until dry. After 1 h in an oven at 50 °C, the residue was derivatized with 75 µL of MSTFA: NH4I:2-mercaptoethanol reaction mixture for 30 min at 60 °C and 2 µL was injected into the gas chromatograph.
For the preparation of the calibration curves, 1 mL of diluted urine (1:10 in water) was spiked with an increasing concentration of c- and t-RESV and dihydro-RESV (10–200 ng/mL), and subjected to the extraction procedure exactly in the same way as the samples.
The extracted samples were analyzed using an Agilent Technologies (Santa Clara, CA, USA) 6890 N gas chromatograph coupled to a 5973 mass-selective detector. For chromatographic separation, a 5% phenyl-dimethyl-polysiloxane Zebron™ (Torrance, CA, USA) fused-silica capillary column (15 m × 0.25 mm i.d., 0.25 µm film thickness) was used. The split injection mode using helium as a carrier gas (0.9 mL/min) was applied. The temperatures of the injector and transfer line were set at 280 °C. Gas chromatographic conditions were as follows: initial oven temperature at 80 °C, raised by 20 °C/min to 200 °C, then by 10 °C/min to 300 °C, and maintained at 300 °C for 3 min. […] Ions at m/z 444 (RESV and piceid), m/z 179 (dihydro-RESV), and m/z 412 (diethylstilbestrol), were selected for the quantitative analysis.

[4] = baseline urine (-2 to 0 h), after washout diet

Urinary recovery from 0 to 6 h (single free form or metabolite) ([1]; after 25 mL EVOO + 150 mL RW) | Urinary recovery from 0 to 6 h (single free form or metabolite) ([1]; after single dose 25 mL EVOO) [nmol] | Urinary recovery from 0 to 6 h (single free form or metabolite) ([1]; after single dose 150 mL RW) | RESV urinary recovery from 0 to 6 h ([3]; after single dose 25 mL EVOO) [nmol] | SMILES | RESV urinary recovery from 0 to 6 h ([3]; after 25 mL EVOO + 150 mL RW) | RESV urinary recovery from 0 to 6 h ([3]; after single dose 150 mL RW) | also measured
– | – | – | 0.0 ± 0.0 | Oc1ccc(C=Cc2cc(O)cc(O)c2)cc1 [t-RESV, 3,4′,5-Trihydroxystilbene] | 61.7 ± 42.4 nmol and 61.7 ± 42.4 ^aa nmol | 59.2 ± 28.7 nmol and 59.2 ± 28.7 ^aa nmol | –
247 ± 205 ^bb nmol | 269 ± 145 | 110 ± 118 ^aa nmol | – | COc1cc(CCO)ccc1O [Free HVALc, homovanillyl alcohol] | – | – | –

Further lines, the compound ahead of its results:

SMILES | Urinary recovery from 0 to 6 h (single free form or metabolite) ([1]; after 25 mL EVOO + 150 mL RW) | Urinary recovery from 0 to 6 h (single free form or metabolite) ([1]; after single dose 25 mL EVOO) [nmol] | Urinary recovery from 0 to 6 h (single free form or metabolite) ([1]; after single dose 150 mL RW) | RESV urinary recovery from 0 to 6 h ([3]; after single dose 25 mL EVOO) [nmol] | RESV urinary recovery from 0 to 6 h ([3]; after 25 mL EVOO + 150 mL RW) | RESV urinary recovery from 0 to 6 h ([3]; after single dose 150 mL RW) | also measured
OCCc1ccc(O)cc1 [TYR, tyrosol] | 460 ± 490 ^b nmol | 404 ± 346 | 132 ± 114 ^aa nmol | – | – | – | Total urinary recovery from 0 to 6 h (sum of free form and metabolites) ([1]; after 25 mL EVOO + 150 mL RW): 4925 ± 1751 nmol; Total urinary recovery from 0 to 6 h (sum of free form and metabolites) ([1]; after 25 mL EVOO + 150 mL RW, listed as Total TYR): 4925 ± 3993 ^aa b nmol; Total urinary recovery from 0 to 6 h (sum of free form and metabolites) ([1]; after single dose 25 mL EVOO): 2180 ± 1917 nmol; Total urinary recovery from 0 to 6 h (sum of free form and metabolites) ([1]; after single dose 150 mL RW): 2567 ± 1468 nmol
CCO[C@@H]1O[C@H](C(=O)O)[C@@H](O)[C@H](O)[C@H]1O [Ethyl glucuronide] | – | – | – | – | – | – | Ethyl glucuronide recovery in urine ([2]; after EVOO (25 mL)): undetectable; Ethyl glucuronide recovery in urine ([2]; after RW + EVOO intervention): 19.3 ± 7.6 µmols; Ethyl glucuronide recovery in urine ([2]; after RW intervention (150 mL)): 19.0 ± 9.5 µmols; Ethyl glucuronide in urine at baseline [2, 4]: undetectable
Oc1ccc(CCc2cc(O)cc(O)c2)cc1 [Dihydro-RESV, Dihydroresveratrol] | – | – | – | 0.0 ± 0.0 | 13.0 ± 8.3 ^aa nmol | 10.9 ± 7.5 ^aa nmol | RESV urinary recovery from 0 to 6 h ([3]; after 25 mL EVOO + 150 mL RW, listed as dihydro-RESV): 13.0 ± 8.3 nmol; RESV urinary recovery from 0 to 6 h ([3]; after single dose 150 mL RW, listed as dihydro-RESV): 10.9 ± 7.5 nmol
OCCc1ccc(O)c(O)c1 [HT, 3,4-dihydroxyphenylethanol] | 386 ± 289 ^bb nmol | 367 ± 221 | 201 ± 173 ^aa nmol | – | – | – | Total urinary recovery from 0 to 6 h (sum of free form and metabolites) ([1]; after 25 mL EVOO + 150 mL RW): 6286 ± 3198 nmol; Total urinary recovery from 0 to 6 h (sum of free form and metabolites) ([1]; after 25 mL EVOO + 150 mL RW, listed as Total HT): 6286 ± 3198 ^aa bb nmol; Total urinary recovery from 0 to 6 h (sum of free form and metabolites) ([1]; after single dose 25 mL EVOO): 3788 ± 1751 nmol; Total urinary recovery from 0 to 6 h (sum of free form and metabolites) ([1]; after single dose 150 mL RW): 2308 ± 847 nmol; Total urinary recovery from 0 to 6 h (sum of free form and metabolites) ([1]; after single dose 150 mL RW, listed as Total HT): 2308 ± 847 ^a nmol
Oc1ccc(C=Cc2cc(O)cc(O)c2)cc1 [c-RESV, 3,4′,5-Trihydroxystilbene] | – | – | – | 0.0 ± 0.0 | 83.8 ± 62.6 ^aa nmol | 72.8 ± 44.3 ^aa nmol | –
Oc1ccc(C=Cc2cc(O)cc(O)c2)cc1 [RESV, 3,4′,5-Trihydroxystilbene] | – | – | – | – | – | – | RESV in baseline urine samples [3, 4]: no RESV was observed
